Assay results reported in patent publication US7387800B2, “Sesquiterpenoid derivatives having adipocyte differentiation inhibitory effect” (Meiji Dairies Corporation, priority 2001, dated 2008).

Tested on: Mouse adipocyte precursors (3T3-L1)
Assay: Inhibition of insulin-induced adipocyte differentiation, acetic acid (14C-CH3COOH) incorporation activity as index
Type: cell-based
Details: 3T3-L1 differentiation into adipocytes; compound added with insulin; FIG. 4
Protocol: Whether Calea extract solution has an inhibitory activity on adipocyte differentiation induced by the addition of insulin was investigated. First, the aerial portion of Calea (170 g) was ground, and extracted by heated reflux using acetone (24 hours×2 times) to produce Calea extract solution. The extracted solution was filtered, and then concentrated under reduced pressure to yield a concentrated extract. Mouse adipocyte precursors (3T3-L1) obtained from Human Science Research Resources Bank was used as the adipocyte in the present experiment. Normal successive cultivation was performed using Dulbecco's modified Eagle MEM medium containing 10% calf serum (CS) at 37° C. in the presence of 5% CO2. […]
In the system where acetic acid incorporation activity was used as an index, first the cells were placed into a 24-well plate at a density of 4.2×10^4 cell/well. […] Using a liquid scintillation counter, radioactivity of the isopropanol fraction (adipose component) was measured. […] Then, protein quantification was performed according to the Bradford dye-binding method. […]

SMILES | incorporation inhibitory activity (acetic acid incorporation), result in words
C=C(C)C(=O)O[C@H]1[C@H]2C(=C)C(=O)O[C@@H]2C[C@@H](C)[C@@H]2O[C@@H]2C(=O)[C@@](C)(O)[C@@H]1OC(=O)C(=C)C [compound 6] | high incorporation inhibitory activity
C=C(C)C(=O)O[C@H]1[C@H]2C(=C)C(=O)O[C@@H]2C[C@@H](C)/C=C\C(=O)[C@@](C)(O)[C@@H]1OC(=O)C(=C)C [compound 11] | high incorporation inhibitory activity
